{"source": "patent US4029650A", "about": "“Novel derivatives of N-(3,4,5-trimethoxy cinnamoyl)piperazine and the process for preparing them” (priority 1974, dated 1977)", "key": {"[1]": {"assay": "Coronary vasodilatory action: increase of flow in the anterior interventricular artery, anaesthetised dog, intravenous", "type": "in vivo"}, "Acute toxicity (mouse)": {"assay": "Acute toxicity (mouse)", "details": "in vivo; for LD50: read-out: Acute toxicity (DL 50) (converted); for mortality: read-out: Percentage mortality"}, "[2]": {"assay": "Peripheral vasodilatory action: increase of femoral artery flow, anaesthetised dog, intra-arterial", "type": "in vivo", "details": "500 μg/kg (0.5 mg/kg) i.a."}, "[3]": {"assay": "Antihypertensive properties in genetically hypertensive (vigil SHR) rat", "type": "in vivo", "details": "for Hypertensive action (vigil SHR rat), effect: 100 mg/kg p.o."}, "[4]": {"assay": "Cerebral vasodilatory properties: sub-cortical irrigation, anaesthetised cat", "type": "in vivo", "details": "8 mg/kg i.v.", "source_text": "Administered to an anaesthetised cat by single intravenous injection, the derivatives of formula I are capable of increasing the sub-cortical irrigation measured according to a technique derived from the thermoconductimetric method of SEYLAZ."}, "[5]": {"assay": "Increase of flow and oxygenation of the coronary veinous sinus, intravenous perfusion", "type": "in vivo, dog", "description": "Furthermore, administered by intravenous perfusion, the derivatives of formula I are capable of increasing the flow and oxygenation of the coronary veinous sinus, the flow of the coronary veinous sinus being measured volumetrically by means of a modified MORAWITZ probe, whilst the oxygen content of the coronary veinous blood is calculated from the rate of hemoglobin saturation measured by hemoreflectometry."}, "[6]": {"details": "12.5 mg/kg i.v. perfused in 10 min. (1 ml/min)"}, "[7]": {"details": "anaesthetised dog, 4 mg/kg i.v."}, "[8]": {"details": "17.5 mg/kg intravenous perfusion"}, "[9]": {"details": "100 mg/kg po, genetically hypertensive rat"}, "[10]": {"details": "anaesthetised dog, 2 mg/kg i.v."}, "[11]": {"details": "12.7 mg/kg intravenous perfusion"}}, "note": "Structures can show the parent of a compound that is named as a salt. Where two headings read alike, the source gives them in different places."}
{"smiles": "COc1cc(C=CC(=O)N2CCN(CC(=O)N3CCCC3)CC2)cc(OC)c1OC", "note": "[67 350, reference compound]", "values": [{"measurement": "duration of increase of flow in the anterior interventricular artery", "setting": "[1]; [6]", "value": 60, "unit": "min"}, {"measurement": "increase of flow in the anterior interventricular artery", "setting": "[1]; [6]", "value": 59, "unit": "%"}, {"measurement": "LD50", "setting": "Acute toxicity (mouse); iv, mouse, i.v.", "value": 617, "unit": "mg/kg"}, {"measurement": "LD50", "setting": "Acute toxicity (mouse); po, mouse, p.o.", "value": 1000, "unit": "mg/kg"}, {"measurement": "mortality", "setting": "Acute toxicity (mouse); mouse, iv, 617 mg/kg, intravenously (mouse), 617 mg/kg", "value": 50, "unit": "%"}, {"measurement": "mortality", "setting": "Acute toxicity (mouse); mouse, po, 1000 mg/kg, orally (mouse), 1 000 mg/kg", "value": 50, "unit": "%"}, {"measurement": "duration of increase of femoral artery flow", "setting": "[2]", "value": 12, "unit": "min"}, {"measurement": "increase of femoral artery flow", "setting": "[2]", "value": 82, "unit": "%"}, {"measurement": "Hypertensive action (vigil SHR rat), effect", "setting": "[3]; 4 h", "value": -40, "unit": "%"}, {"measurement": "Hypertensive action (vigil SHR rat), effect", "setting": "[3]; 24 h", "value": -20, "unit": "%"}]}
{"smiles": "COc1cc(C=CC(=O)N2CCN(CC(=O)N3CCCCC3)CC2)cc(OC)c1OC.O=C(O)/C=C\\C(=O)O", "note": "[74 0479, N-(3,4,5-trimethoxycinnamoyl)-N'-(piperidinocarbonylmethyl) piperazine maleate]", "values": [{"measurement": "duration of increase in the sub-cortical flow", "setting": "[4]", "value": 47, "unit": "min"}, {"measurement": "increase in the sub-cortical flow", "setting": "[4]", "value": 58, "unit": "%"}, {"measurement": "duration of increase of flow in the anterior interventricular artery", "setting": "[1]; [7]", "value": 40, "unit": "min"}, {"measurement": "increase of flow in the anterior interventricular artery", "setting": "[1]; [7]", "value": 190, "unit": "%"}, {"measurement": "Increase of flow of the coronary veinous sinus", "setting": "[5]; [8]", "value": 50, "unit": "%"}, {"measurement": "Increase of oxygenation of the coronary veinous sinus", "setting": "[5]; [8]", "value": 132, "unit": "%"}, {"measurement": "duration of effect on flow of the coronary veinous sinus", "setting": "[5]; [8]", "value": 15, "unit": "min"}, {"measurement": "duration of effect on oxygenation of the coronary veinous sinus", "setting": "[5]; [8]", "value": 30, "unit": "min"}, {"measurement": "LD50", "setting": "Acute toxicity (mouse); iv, mouse, i.v.", "value": 700, "unit": "mg/kg"}, {"measurement": "LD50", "setting": "Acute toxicity (mouse); po, mouse, p.o.", "value": 2250, "unit": "mg/kg"}, {"measurement": "mortality", "setting": "Acute toxicity (mouse); mouse, iv, 700 mg/kg, intravenously (mouse), 700 mg/kg", "value": "~50", "unit": "%"}, {"measurement": "mortality", "setting": "Acute toxicity (mouse); mouse, po, 250 mg/kg, orally (mouse), 2 250 mg/kg", "value": 50, "unit": "%"}, {"measurement": "duration of increase of femoral artery flow", "setting": "[2]", "value": 3, "unit": "min"}, {"measurement": "increase of femoral artery flow", "setting": "[2]", "value": 120, "unit": "%"}, {"measurement": "animals with systolic arterial pressure lowered by 30 mmHg", "setting": "[3]; [9]", "value": 60, "unit": "%"}, {"measurement": "duration of lowering of the systolic arterial pressure", "setting": "[3]; [9]", "value": "exceeding 24 hours"}, {"measurement": "lowering of the systolic arterial pressure", "setting": "[3]; 100 mg/kg po, genetically hypertensive rat, in 60% of the animals", "value": 30, "unit": "mmHg"}]}
{"smiles": "COc1cc(C=CC(=O)N2CCN(CC(=O)N3CCCCCCC3)CC2)cc(OC)c1OC", "note": "[74 0678, N-(3,4,5-trimethoxycinnamoyl)-N'-(heptamethyleniminocarbonylmethyl) piperazine oxalate]", "values": [{"measurement": "duration of increase in the sub-cortical flow", "setting": "[4]", "value": 5, "unit": "min"}, {"measurement": "increase in the sub-cortical flow", "setting": "[4]", "value": 45, "unit": "%"}, {"measurement": "duration of increase of flow in the anterior interventricular artery", "setting": "[1]; [10]", "value": 8.3, "unit": "min"}, {"measurement": "increase of flow in the anterior interventricular artery", "setting": "[1]; [10]", "value": 148, "unit": "%"}, {"measurement": "Increase of flow of the coronary veinous sinus", "setting": "[5]; [11]", "value": 65, "unit": "%"}, {"measurement": "Increase of oxygenation of the coronary veinous sinus", "setting": "[5]; [11]", "value": 162, "unit": "%"}, {"measurement": "duration of effect on flow of the coronary veinous sinus", "setting": "[5]; [11]", "value": 30, "unit": "min"}, {"measurement": "duration of effect on oxygenation of the coronary veinous sinus", "setting": "[5]; [11]", "value": 60, "unit": "min"}, {"measurement": "mortality", "setting": "Acute toxicity (mouse); iv, intravenously (mouse), 255 mg/kg", "value": "~50", "unit": "%"}, {"measurement": "LD50", "setting": "Acute toxicity (mouse); iv, mouse, i.v.", "value": 255, "unit": "mg/kg"}, {"measurement": "duration of increase of femoral artery flow", "setting": "[2]", "value": 4.5, "unit": "min"}, {"measurement": "increase of femoral artery flow", "setting": "[2]", "value": 226, "unit": "%"}]}
{"smiles": "COc1cc(C=CC(=O)N2CCN(CC(=O)N3CCc4ccccc4C3)CC2)cc(OC)c1OC", "note": "[75 0001, N-(3,4,5-trimethoxycinnamoyl)-N'-(1,2,3,4-tetrahydroisoquinolinocarbonylmethyl)piperazine]", "values": [{"measurement": "duration of increase in the sub-cortical flow", "setting": "[4]", "value": 22, "unit": "min"}, {"measurement": "increase in the sub-cortical flow", "setting": "[4]", "value": 105, "unit": "%"}, {"measurement": "duration of increase of flow in the anterior interventricular artery", "setting": "[1]; [7]", "value": 19, "unit": "min"}, {"measurement": "increase of flow in the anterior interventricular artery", "setting": "[1]; [7]", "value": 45, "unit": "%"}, {"measurement": "Increase of flow of the coronary veinous sinus", "setting": "[5]; 29 mg/kg intravenous perfusion", "value": 88, "unit": "%"}, {"measurement": "Increase of oxygenation of the coronary veinous sinus", "setting": "[5]; 29 mg/kg intravenous perfusion", "value": 142, "unit": "%"}, {"measurement": "duration of effect on flow of the coronary veinous sinus", "setting": "[5]; 29 mg/kg intravenous perfusion", "value": 15, "unit": "min"}, {"measurement": "duration of effect on oxygenation of the coronary veinous sinus", "setting": "[5]; 29 mg/kg intravenous perfusion", "value": 60, "unit": "min"}, {"measurement": "mortality", "setting": "Acute toxicity (mouse); iv, intravenously (mouse), 580 mg/kg", "value": "~50", "unit": "%"}, {"measurement": "LD50", "setting": "Acute toxicity (mouse); iv, mouse, i.v.", "value": 580, "unit": "mg/kg"}, {"measurement": "duration of increase of femoral artery flow", "setting": "[2]", "value": 7, "unit": "min"}, {"measurement": "increase of femoral artery flow", "setting": "[2]", "value": 106, "unit": "%"}]}
{"smiles": "COc1ccc(CCN(C)C(=O)CN2CCN(C(=O)C=Cc3cc(OC)c(OC)c(OC)c3)CC2)cc1OC", "note": "[75 0002, N-(3,4,5-trimethoxycinnamoyl)-N'-[N\"-methyl N\"-(3,4-dimethoxyphenylethyl)aminocarbonylmethyl] piperazine]", "values": [{"measurement": "duration of increase of flow in the anterior interventricular artery", "setting": "[1]; [7]", "value": 19, "unit": "min"}, {"measurement": "increase of flow in the anterior interventricular artery", "setting": "[1]; [7]", "value": 100, "unit": "%"}, {"measurement": "Increase of flow of the coronary veinous sinus", "setting": "[5]; 20 mg/kg intravenous perfusion", "value": 124, "unit": "%"}, {"measurement": "Increase of oxygenation of the coronary veinous sinus", "setting": "[5]; 20 mg/kg intravenous perfusion", "value": 214, "unit": "%"}, {"measurement": "duration of effect on flow of the coronary veinous sinus", "setting": "[5]; 20 mg/kg intravenous perfusion", "value": 15, "unit": "min"}, {"measurement": "duration of effect on oxygenation of the coronary veinous sinus", "setting": "[5]; 20 mg/kg intravenous perfusion", "value": 60, "unit": "min"}, {"measurement": "mortality", "setting": "Acute toxicity (mouse); iv, intravenously (mouse), 200 mg/kg", "value": "~50", "unit": "%"}, {"measurement": "LD50", "setting": "Acute toxicity (mouse); iv, mouse, i.v.", "value": 200, "unit": "mg/kg"}, {"measurement": "LD50", "setting": "Acute toxicity (mouse); po, mouse, p.o.", "value": 2000, "unit": "mg/kg"}, {"measurement": "mortality", "setting": "Acute toxicity (mouse); mouse, po, 2000 mg/kg, orally (mouse), 2 000 mg/kg", "value": 30, "unit": "%"}, {"measurement": "duration of increase of femoral artery flow", "setting": "[2]", "value": 8, "unit": "min"}, {"measurement": "increase of femoral artery flow", "setting": "[2]", "value": 105, "unit": "%"}]}
